The values below come from PubChem BioAssay (NCI).

Assay in all cases: NCI tumour cell line growth inhibition, 48 h
Test [1] concerns UACC-62 melanoma.
In test [2] the test system is COLO 205 colon.
Test [3] deals with MOLT-4 leukemia.
For test [4], the system named is TK-10 renal.
The test system of test [5] is NCI-H460 lung.
The subject of test [6] is MDA-MB-435.
Test [7] has as its system HCT-116 colon.
Test [8] deals with MCF7 breast.
Test [9] relates to UACC-257 melanoma.
The test system of test [10] is RXF 393 renal.
For test [11], the system named is HCT-15 colon.
Test [12] has as its system OVCAR-8 ovarian.
The subject of test [13] is SN12C renal.
In test [14] the test system is SR leukemia.
For test [15], the system named is HT29 colon.
Test [16] concerns NCI-H522 lung.
Test [17] concerns KM12 colon.
The test system of test [18] is SNB-75 CNS.
The subject of test [19] is NCI-H226 lung.

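96-well plates; 48 h exposure; 5 concentrations. Endpoints by linear interpolation between flanking doses. Not reached: highest tested concentration assigned. The concentration for full growth arrest is given as TGI.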 Some results are limits rather than exact numbers.

As to `CN(/N=C/c1cccs1)c1ccc([N+](=O)[O-])cc1[N+](=O)[O-]`, the TGI in test [1], in [2], in [3], in [4], in [5] and in test [6] was more than 100 µM each time. For the same molecule, the TGI in [7], in test [8], in test [9], in [10], in [11] and in [12] was more than 100 µM in each case. Besides, the TGI in test [13], in test [14], in [15], in test [16], in test [17] and in [18] was more than 100 µM in each case.

As for `Nc1ccc(S(=O)(=O)c2ccc(NC(=O)c3cccnc3)cc2)cc1`, the TGI in test [1], in test [2], in [3], in test [4], in [5] and in [6] was more than 100 µM each time. Also, the TGI in [7], in test [8], in [9], in test [10], in test [11] and in [12] was more than 100 µM in each case. Also, the TGI in test [13], in [19], in test [15], in [16], in test [17] and in test [18] was more than 100 µM each time.

Turning to `O=C(CC(C(=O)c1cccs1)c1ccsc1)c1ccsc1` (configuration not stated), the TGI in test [1] was more than 100 µM; in test [2] it was 53.5 µM; in [3], more than 100 µM; in test [4] it was more than 100 µM; in test [5], more than 100 µM; in test [6] it was more than 100 µM. For the same molecule, the TGI in test [7], in [8], in test [9], in test [10], in [11] and in test [12] was more than 100 µM throughout. Also, the TGI in [13] is more than 100 µM; in test [14], more than 100 µM; in test [15] it was more than 100 µM; in test [16] it was 50 µM; in test [17] it was more than 100 µM; in test [18], more than 100 µM.

As for `CCOC(=O)COc1ccc(/C=C/C(=O)c2ccc(OC)cc2)cc1`, the TGI in test [1] was 58.6 µM; in test [2] it was more than 100 µM; in test [3], more than 100 µM; in [4], more than 100 µM; in test [6], 62.9 µM; in test [7] it was 57.7 µM. The TGI was more than 100 µM in test [8]; 57.3 µM in test [9]; 46 µM in [10]; 77.3 µM in [11]; more than 100 µM in test [12]; 39.6 µM in [13]. Besides, the TGI in [14] was 87.4 µM; in test [15], 64.9 µM; in test [16], 73.6 µM; in test [17], more than 100 µM; in [18], more than 100 µM.

Regarding `CCN1C(=O)C(=Cc2ccc(-c3ccccc3)cc2)C(=O)N(CC)C1=S`, the TGI in test [1], in [2], in test [3], in [4], in test [5] and in test [6] was more than 100 µM in each case. Further, the TGI in [7], in [8], in test [9], in test [10], in test [11] and in [12] was more than 100 µM each time. Further, the TGI in test [13], in [19], in test [15], in test [17] and in test [18] was more than 100 µM throughout.

`N#Cc1c2c([nH]c(=O)c1C#N)CCCC2`: the TGI in test [1], in test [2], in test [3], in test [4], in test [5] and in test [6] was more than 100 µM each time. The TGI in test [7], in test [8], in test [9], in test [10], in test [11] and in test [12] was more than 100 µM in each case. The TGI in [13], in [19], in test [15], in test [17] and in test [18] was more than 100 µM each time.

On to `COc1ccc(C2NC3=C(CCCC3)C3(C#N)C(=O)N=C(N)C23C#N)cc1` (configuration not stated), for which the TGI in [1], in test [2], in test [3], in test [4], in [5] and in [6] was more than 100 µM in each case. Also, the TGI in test [7], in test [8], in test [9], in [10], in [11] and in [12] was more than 100 µM throughout. Also, the TGI in [13], in test [19], in test [15], in test [16] and in [17] was more than 100 µM throughout.

Regarding `CN(C)C(=C1c2cc([N+](=O)[O-])ccc2-c2ccc([N+](=O)[O-])cc21)N(C)C`, the TGI in [1], in test [2], in test [3], in [4], in [6] and in [7] was more than 100 µM each time. Besides, the TGI in test [8], in test [9], in test [10], in test [11], in test [12] and in test [13] was more than 100 µM throughout. The TGI in [19], in test [15], in [16], in [17] and in [18] was more than 100 µM in each case.

Regarding `O=C(O)C/C(=C\c1ccccc1)C(=O)O`, the TGI in [1], in [2], in test [3], in test [4], in test [5] and in [6] was more than 100 µM throughout. Besides, the TGI in test [7], in test [8], in test [9], in test [10], in [11] and in test [12] was more than 100 µM each time. For the same molecule, the TGI in test [13], in test [19], in test [15], in test [16], in test [17] and in [18] was more than 100 µM throughout.

As to `Cc1cccc(Nc2cn(CCOc3ccccc3)c(=O)n(CCOc3ccccc3)c2=O)c1`, the TGI in test [1], in [2], in test [3], in test [5], in test [6] and in test [7] was more than 100 µM in each case. Further, the TGI in [8], in test [9], in test [10], in test [11], in test [13] and in test [14] was more than 100 µM each time. In test [17], this molecule came in with a TGI of more than 100 µM.

In the case of `Cn1c(COC(=O)NC2CCCCC2)c(COC(=O)NC2CCCCC2)c2ccc3cc(Cl)c(Cl)cc3c21`, the TGI came to 24.1 µM in test [1]; 24.6 µM in [2]; 54.4 µM in [3]; 30.6 µM in [4]; 17.3 µM in [5]; 49.4 µM in test [6]. The TGI was 23.1 µM in [7]; 16.9 µM in test [8]; 29 µM in [9]; 21.4 µM in test [10]; 24.7 µM in [11]; more than 100 µM in test [12]. In addition, the TGI was 23.9 µM in test [13]; more than 100 µM in [19]; 69.3 µM in test [15]; 36.4 µM in [17]; 27.8 µM in test [18].

Take `Cc1cc(C)c(C)c(-n2[nH]c(=O)n(C)c2=O)c1C`: the TGI in test [1], in test [2], in [3], in [4], in test [5] and in test [6] was more than 100 µM each time. Also, the TGI in test [7], in test [8], in [9], in test [11], in [12] and in test [13] was more than 100 µM each time. The TGI in test [19], in test [14], in test [15] and in test [17] was more than 100 µM in each case.

`C1=NCCOCCN=Cc2ccccc2OCc2cccc(n2)COc2ccccc21`: the TGI in [1] was 9.09 µM; in test [2], more than 25 µM; in [3], 18.4 µM; in test [4] it was 20.4 µM; in test [5] it was more than 25 µM; in [6], 3.68 µM. Besides, the TGI in test [7] was more than 25 µM; in [8] it was 19.4 µM; in test [9] it was 21.5 µM; in test [10] it was more than 25 µM; in test [11], 16.5 µM; in test [12], 16.9 µM. The TGI in [13] was 15.2 µM; in test [14], 9.91 µM; in [15] it was 10.9 µM; in test [16] it was more than 25 µM; in [17], more than 25 µM; in [18] it was 12.9 µM.

For the molecule `CC(C)N1CSC(=S)N(Cc2ccccc2)C1`, the TGI was more than 10 µM in test [1]; more than 10 µM in [2]; 7.43 µM in [3]; more than 10 µM in test [4]; more than 10 µM in [5]; more than 10 µM in test [6]. For the same molecule, the TGI was more than 10 µM in [7]; more than 10 µM in [8]; 6.27 µM in [10]; more than 10 µM in test [11]; more than 10 µM in [12]; more than 10 µM in [13]. Moreover, the TGI is 4.81 µM in test [14], 6.04 µM in test [15], more than 10 µM in test [17] and more than 10 µM in test [18].

For the molecule `NC1CNC(=O)c2cscc21` (configuration not stated), the TGI in test [1], in [2], in [3], in [5], in test [6] and in [7] was more than 100 µM throughout. Further, the TGI in test [8], in test [9], in [10], in test [11], in [13] and in test [14] was more than 100 µM each time. Besides, the TGI in test [15], in test [16] and in [17] was more than 100 µM each time.

Regarding `Cc1ccc(NC(=O)CC(=O)n2nc(C)c(N=Nc3ccc(S(=O)(=O)CCOS(=O)(=O)O)cc3)c2C)cc1`, the TGI in test [1], in test [2], in [3], in test [4], in test [5] and in test [6] was more than 100 µM in each case. Also, the TGI in test [7], in [8], in test [9], in test [10], in test [12] and in test [19] was more than 100 µM each time. Moreover, the TGI in [15], in [16], in test [17] and in test [18] was more than 100 µM each time.

Consider `CC(C)CNC(=O)Cn1c2c(c3ccccc31)CCCC2`, for which the TGI in [1], in test [2], in [3], in test [4], in test [5] and in test [6] was more than 100 µM in each case. Also, the TGI in test [7], in test [8], in test [9], in [11], in test [12] and in test [13] was more than 100 µM in each case. Besides, the TGI in test [14] and in [15] was more than 100 µM in each case.
